In patent US4835182A (priority 1987, dated 1989):
Like-named read-outs stand apart in the source and are kept apart here.

Legend:
in vivo [1] = conditions: iv, 10 mg/kg
in vivo [2] = assay: in vivo
[3] = background; cited from earlier work
[4] = in vivo

SMILES | Kp (in vivo [1]) | Kp (in vivo [2]) | entry into the brain [3] | increase of brain/plasma concentration ratio of active drug versus chlorambucil [4]
O=C(O)CCCc1ccc(N(CCCl)CCCl)cc1 [chlorambucil] | 0.017 | 0.02 |  | 
N[C@@H](Cc1ccc(N(CCCl)CCCl)cc1)C(=O)O [melphalan] |  | 0.1 | only minimally enter the brain | 
CC(C)(C)OC(=O)CCCc1ccc(N(CCCl)CCCl)cc1 [tertiary butyl chlorambucil] | 0.7 | 0.7 |  | 4100%
